Data reported in publication PMC4941420, “A Rational Approach for the Identification of Non-Hydroxamate HDAC6-Selective Inhibitors” (Scientific Reports, 2016).
Each block holds one molecule with its values, some of them ahead of it.

Columns and labels:
HDAC6 [1] = molecular target: T1, HDAC6 (Homo sapiens, UniProt Q9UBN7); experiment: In vitro enzymatic assay HDAC6 (Fluor de Lys); assay type: biochemical; details: for HDAC6 % of inhibition at 100 µM / inhibition at 100 µM: mean ± SD (n=3); for inhibition at 100 µM: read-out: HDAC6 % of inhibition at 100 µM; for IC50: average of at least 2 independent experiments in duplicates ± SEM
T1 construct: purchased Sigma Aldrich or Reaction Biology Corporation
T1 sequence (Q9UBN7 1-1215): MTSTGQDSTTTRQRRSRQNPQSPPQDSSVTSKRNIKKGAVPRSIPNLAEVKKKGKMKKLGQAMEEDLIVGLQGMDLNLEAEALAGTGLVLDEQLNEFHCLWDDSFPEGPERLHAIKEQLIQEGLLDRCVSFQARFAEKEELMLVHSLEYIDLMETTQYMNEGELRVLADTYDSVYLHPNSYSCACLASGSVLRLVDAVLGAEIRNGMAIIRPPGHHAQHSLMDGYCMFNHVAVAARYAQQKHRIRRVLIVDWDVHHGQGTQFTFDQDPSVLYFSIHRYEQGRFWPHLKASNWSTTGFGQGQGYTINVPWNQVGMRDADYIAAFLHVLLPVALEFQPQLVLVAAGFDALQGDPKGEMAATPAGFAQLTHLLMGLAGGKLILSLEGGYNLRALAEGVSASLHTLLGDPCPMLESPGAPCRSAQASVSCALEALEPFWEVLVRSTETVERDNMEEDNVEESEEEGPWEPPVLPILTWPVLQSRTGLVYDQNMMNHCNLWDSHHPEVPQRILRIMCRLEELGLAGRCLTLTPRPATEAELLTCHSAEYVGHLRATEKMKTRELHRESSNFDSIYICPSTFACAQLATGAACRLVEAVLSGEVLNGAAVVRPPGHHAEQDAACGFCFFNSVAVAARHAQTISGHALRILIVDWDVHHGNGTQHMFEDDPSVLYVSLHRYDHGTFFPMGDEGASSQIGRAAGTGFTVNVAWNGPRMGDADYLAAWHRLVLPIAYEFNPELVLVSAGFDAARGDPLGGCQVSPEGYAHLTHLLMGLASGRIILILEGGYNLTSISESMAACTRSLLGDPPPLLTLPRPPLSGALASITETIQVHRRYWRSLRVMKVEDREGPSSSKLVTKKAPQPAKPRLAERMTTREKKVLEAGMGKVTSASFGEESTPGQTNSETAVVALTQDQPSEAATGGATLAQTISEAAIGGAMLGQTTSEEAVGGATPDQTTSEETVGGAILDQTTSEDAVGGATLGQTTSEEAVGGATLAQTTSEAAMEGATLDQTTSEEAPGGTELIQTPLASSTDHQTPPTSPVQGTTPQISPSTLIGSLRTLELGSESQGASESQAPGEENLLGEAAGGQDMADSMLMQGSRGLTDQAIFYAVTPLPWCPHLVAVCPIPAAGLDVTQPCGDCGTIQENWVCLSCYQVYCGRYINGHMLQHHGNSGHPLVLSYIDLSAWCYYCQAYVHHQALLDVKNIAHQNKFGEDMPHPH

[2] = Solubility remarks during testing; assay type: physicochemical; details: tested at 100 µM in HDAC assay buffer
HDAC2 = molecular target: T2, HDAC2 (Homo sapiens, UniProt Q92769); experiment: In vitro enzymatic assay HDAC2 (Fluor de Lys); assay type: biochemical; details: average of at least 2 independent experiments in duplicates ± SEM
T2 construct: purchased Sigma Aldrich or Reaction Biology Corporation

[3] = test system: class I HDACs (HeLa nuclear extracts); experiment: HDAC activity of HeLa nuclear extracts (Fluor de Lys); assay type: biochemical, human; details: 100 μM, average of at least 3 independent experiments in duplicates (Table 1)
HDAC8 = molecular target: T3, HDAC8 (Homo sapiens, UniProt Q9BY41); experiment: In vitro enzymatic assay HDAC8 (Fluor de Lys); assay type: biochemical; details: average of at least 2 independent experiments in duplicates ± SEM
T3 construct: purchased Sigma Aldrich or Reaction Biology Corporation
T3 sequence (Q9BY41 1-377): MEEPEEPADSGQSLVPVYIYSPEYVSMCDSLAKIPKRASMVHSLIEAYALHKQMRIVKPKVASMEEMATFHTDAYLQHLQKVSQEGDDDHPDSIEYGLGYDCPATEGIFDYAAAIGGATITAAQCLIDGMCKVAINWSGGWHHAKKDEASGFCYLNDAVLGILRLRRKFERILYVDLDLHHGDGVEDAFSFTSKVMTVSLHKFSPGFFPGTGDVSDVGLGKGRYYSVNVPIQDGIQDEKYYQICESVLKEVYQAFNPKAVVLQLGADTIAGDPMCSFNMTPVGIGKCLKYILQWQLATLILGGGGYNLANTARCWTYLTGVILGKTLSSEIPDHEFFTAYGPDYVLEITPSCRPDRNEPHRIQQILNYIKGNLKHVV

HDAC4 = molecular target: T4, HDAC4 (Homo sapiens, UniProt P56524); experiment: In vitro enzymatic assay HDAC4 (Fluor de Lys); assay type: biochemical; details: average of at least 2 independent experiments in duplicates ± SEM
T4 construct: purchased Sigma Aldrich or Reaction Biology Corporation

HDAC6 [4] = experiment: HDAC ChEMBL dataset / literature, enzymatic IC50 HDAC6; assay type: biochemical; details: ratio of ChEMBL IC50 values

T4 sequence (P56524 whole entry): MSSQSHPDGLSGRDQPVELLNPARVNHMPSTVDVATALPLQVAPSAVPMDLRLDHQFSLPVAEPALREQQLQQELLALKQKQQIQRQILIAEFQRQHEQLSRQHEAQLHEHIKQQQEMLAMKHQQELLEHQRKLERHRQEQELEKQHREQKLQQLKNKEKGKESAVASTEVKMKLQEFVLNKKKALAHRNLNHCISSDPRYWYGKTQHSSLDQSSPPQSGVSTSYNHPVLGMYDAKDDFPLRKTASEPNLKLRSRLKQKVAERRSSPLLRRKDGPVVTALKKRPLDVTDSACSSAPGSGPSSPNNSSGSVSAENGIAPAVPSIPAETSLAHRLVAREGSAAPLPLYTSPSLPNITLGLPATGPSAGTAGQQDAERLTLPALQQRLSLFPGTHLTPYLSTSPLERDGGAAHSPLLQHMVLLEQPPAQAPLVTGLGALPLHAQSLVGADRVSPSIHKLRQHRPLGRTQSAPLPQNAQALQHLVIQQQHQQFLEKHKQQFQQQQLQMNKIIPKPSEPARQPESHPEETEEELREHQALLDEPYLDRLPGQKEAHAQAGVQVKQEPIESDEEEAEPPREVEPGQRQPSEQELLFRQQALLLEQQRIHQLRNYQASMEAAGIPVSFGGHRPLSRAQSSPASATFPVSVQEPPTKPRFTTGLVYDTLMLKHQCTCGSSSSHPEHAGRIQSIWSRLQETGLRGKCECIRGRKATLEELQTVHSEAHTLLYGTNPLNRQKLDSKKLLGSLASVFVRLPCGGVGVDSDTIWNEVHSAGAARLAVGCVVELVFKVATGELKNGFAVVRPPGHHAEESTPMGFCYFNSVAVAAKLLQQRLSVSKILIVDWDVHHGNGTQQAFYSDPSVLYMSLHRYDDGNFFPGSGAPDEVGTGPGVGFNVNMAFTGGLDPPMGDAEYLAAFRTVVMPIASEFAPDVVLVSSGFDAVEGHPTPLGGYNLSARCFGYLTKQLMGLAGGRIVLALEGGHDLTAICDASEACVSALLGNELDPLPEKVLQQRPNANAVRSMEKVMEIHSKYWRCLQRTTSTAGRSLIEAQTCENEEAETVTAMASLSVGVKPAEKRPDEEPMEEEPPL
T2 sequence (Q92769 whole entry): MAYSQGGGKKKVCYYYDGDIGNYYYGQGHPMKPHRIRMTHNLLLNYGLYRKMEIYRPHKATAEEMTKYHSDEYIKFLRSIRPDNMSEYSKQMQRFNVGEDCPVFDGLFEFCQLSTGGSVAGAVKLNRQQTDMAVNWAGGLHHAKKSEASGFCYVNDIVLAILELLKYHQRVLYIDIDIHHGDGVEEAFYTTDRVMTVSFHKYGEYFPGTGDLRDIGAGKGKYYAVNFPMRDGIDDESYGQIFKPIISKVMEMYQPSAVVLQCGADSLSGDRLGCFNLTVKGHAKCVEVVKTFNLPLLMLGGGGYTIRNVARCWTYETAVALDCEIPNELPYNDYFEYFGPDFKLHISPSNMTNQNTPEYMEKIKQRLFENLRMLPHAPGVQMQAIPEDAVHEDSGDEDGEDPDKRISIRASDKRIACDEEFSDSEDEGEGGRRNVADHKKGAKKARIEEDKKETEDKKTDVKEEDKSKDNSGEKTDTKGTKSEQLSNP

Compound: C=CCn1c(SCC(=O)Nc2ccc(S(N)(=O)=O)cc2)nnc1-c1sc(N)nc1C [AS-1]
HDAC6 % of inhibition at 100 µM (HDAC6 [1]): -1.8 ± 11.1%

Compound: Cc1c(C)n(Cc2ccccc2)c2ccc(C(=O)NN)cc12 [AK-12]
HDAC6 % of inhibition at 100 µM (HDAC6 [1]): 28.2 ± 16.7%

Compound: Cc1nn(Cc2ccc(C(=O)NN)o2)c(C)c1Cl [AK-11]
HDAC6 % of inhibition at 100 µM (HDAC6 [1]): 5.3 ± 19.9%

Compound: C=CCn1c2ccccc2c2nnc(SC(CC)C(=O)Nc3ccc(S(N)(=O)=O)cc3)nc21 (centres unmarked) [AG-3]
HDAC6 % of inhibition at 100 µM (HDAC6 [1]): 16.3 ± 0. %

Compound: CC(C)(C)C1CCC(C(=O)NN)CC1 (centres unmarked) [AK-23]
HDAC6 % of inhibition at 100 µM (HDAC6 [1]): 20.2 ± 10.9%

Compound: COc1cc(/C=C2/SC(N)=NC2=O)ccc1OCc1ccc(Cl)cc1Cl [AG-2]
HDAC6 % of inhibition at 100 µM (HDAC6 [1]): -2.8 ± 9.7% Self-fluorescence

Compound: Cn1cccc1C(=O)N1Cc2ccc(C(=O)NO)cc2C1 [CHEMBL2431906]
Isoform selectivity (ratio) HDAC2/HDAC6 (HDAC6 [4]): 169.2
Isoform selectivity (ratio) HDAC4/HDAC6 (HDAC6 [4]): 84.6

Compound: Cn1cccc1C(=O)N1CCc2cc(C(=O)NO)ccc2C1 [CHEMBL2431901]
Isoform selectivity (ratio) HDAC2/HDAC6 (HDAC6 [4]): 1388.9
Isoform selectivity (ratio) HDAC4/HDAC6 (HDAC6 [4]): 1388.9
Isoform selectivity (ratio) HDAC8/HDAC6 (HDAC6 [4]): 58.33

Compound: O=C(NO)c1ccc(C(=O)NCCc2ccccc2)cc1 [CHEMBL2333340]
Isoform selectivity (ratio) HDAC2/HDAC6 (HDAC6 [4]): 151.75
Isoform selectivity (ratio) HDAC4/HDAC6 (HDAC6 [4]): 8332.5
Isoform selectivity (ratio) HDAC8/HDAC6 (HDAC6 [4]): 287.5

Compound: Cn1cc(Br)c(C(=O)NN)n1 [AK-3]
HDAC6 % of inhibition at 100 µM (HDAC6 [1]): 0.1 ± 2.3%

Compound: COc1cc(/C=N/NC(N)=S)ccc1OCC(=O)Nc1ccc(C)c(C)c1 [AN-3]
HDAC6 % of inhibition at 100 µM (HDAC6 [1]): -4.0 ± 3.9% Self-fluorescence

Compound: COc1cc(/C=N/NC(N)=S)ccc1OCC(=O)Nc1ccc(Br)c(Cl)c1 [AN-2]
HDAC6 % of inhibition at 100 µM (HDAC6 [1]): 4.9 ± 8.2% Self-fluorescence

Compound: NNC(=O)c1ccc(Cn2cc(Br)cn2)cc1 [AK-21]
inhibition at 100 µM (HDAC6 [1]): 67.9 ± 7.8%
IC50 (HDAC6 [1]): 30.9 ± 2.1 µM
IC50 (HDAC2): 201.7 ± 1.9 µM
HeLa % of inhibition at 100 μM [3]: 14.7 ± 11.6%
IC50 (HDAC8): 74.9 ± 0.8 µM
IC50 (HDAC4): > 300 µM

Compound: NS(=O)(=O)c1ccc(N2N=C(C(F)(F)F)/C(=C/c3ccc(-c4ccc(Cl)c(Cl)c4)o3)C2=O)cc1 [AN-1]
HDAC6 % of inhibition at 100 µM (HDAC6 [1]): -43.0 ± 11.8%

More lines, main results first:

HDAC6 % of inhibition at 100 µM (HDAC6 [1]): 18.3 ± 0.1%
Compound: CC(C)c1ccc(OCc2cccc(C(=O)NN)c2)cc1 [AK-1]

HDAC6 % of inhibition at 100 µM (HDAC6 [1]): -16.4 ± 9.3%
solubility remark in HDAC6 screening [2]: Solubility issues
Compound: Cc1cc2ccccc2n2c(SCC(=O)Nc3ccc(S(N)(=O)=O)cc3)nnc12 [AQ-1]

inhibition at 100 µM (HDAC6 [1]): 83.8 ± 2.3%
selectivity index (SI) with respect to HDAC2 (HDAC6 [1]; HDAC6 versus HDAC2): > 50
IC50 (HDAC6 [1]): 21.7 ± 1.2 µM
IC50 (HDAC2): > 1000 µM
IC50 (HDAC8): 0.3 ± 0.005 µM
IC50 (HDAC4): 111 ± 3.5 µM
Compound: CC1(C)Cc2ccccc2C2=C/C(=N/O)C(=O)N21 [AG-1]
HeLa % of inhibition at 100 μM [3]: 38.2 ± 1.1%

HDAC6 % of inhibition at 100 µM (HDAC6 [1]): 3.0 ± 0.3%
Compound: NNC(=O)C12CC3CC(C1)CC(n1cnc(Cl)n1)(C3)C2 [AK-4]

HDAC6 % of inhibition at 100 µM (HDAC6 [1]): 32.5 ± 8.8%
solubility remark in HDAC6 screening [2]: Solubility issues
Compound: CC1(C)Cc2c(c(N3CCOCC3)nc3sc(C(=O)NN)cc23)CO1 [AK-8]

inhibition at 100 µM (HDAC6 [1]): 58 ± 1.5%
IC50 (HDAC6 [1]): 47.9 ± 4.7 µM
IC50 (HDAC2): > 200 µM
IC50 (HDAC8): 140 ± 11.5 µM
IC50 (HDAC4): > 300 µM
Compound: Cc1nn(Cc2ccc(C(=O)NN)cc2)c(C)c1Cl [AK-2]
HeLa % of inhibition at 100 μM [3]: 10.0 ± 2.0%

HDAC6 % of inhibition at 100 µM (HDAC6 [1]): 36.9 ± 11.3%
Compound: CCOc1ccc(OCc2ccc(C(=O)NN)o2)cc1 [AK-16]
